# Measured values as given in patent US8163940B2, “Method for preparation of amorphous, anhydrous crystalline or hydrated crystalline docetaxel” (Samyang Genex Corporation, priority 2006, dated 2012).
# Several values for one entry are separate records, joined by “and”; a condition that tells them apart may be missing. Equal values may be shown once.
# Assay: Stability of docetaxel dissolved and left standing in alcohols at 50° C. (HPLC purity and degradation degree)
# Type: physicochemical
# Settings: dissolution and standing at 50° C.
# Method: The purity and recovery rate of docetaxel in the present specification were calculated by quantity analysis using HPLC under the conditions of Table 2.
# To evaluate the stability of docetaxel in the case that hydrated crystalline docetaxel is prepared by dissolution in alcohols at a high temperature, methanol and ethanol were each used as an organic solvent and dissolution temperature and standing temperature were 50° C., and change in purity of docetaxel and degradation degree were measured after letting it stand for 0, 1, 5, 10, and 24 hours.
smiles,measurement,setting,value
CC(=O)O[C@@]12CO[C@@H]1C[C@H](O)[C@@]1(C)C(=O)[C@H](O)C3=C(C)[C@@H](OC(=O)[C@H](O)[C@@H](NC(=O)OC(C)(C)C)c4ccccc4)C[C@@](O)([C@@H](OC(=O)c4ccccc4)[C@H]21)C3(C)C [docetaxel],7-epi-docetaxel Amounts Produced,"EtOH, 0 hr",0 area %
same,Change in Purity of Docetaxel,"EtOH, 0 hr",99.7480%
same,7-epi-docetaxel Amounts Produced,"EtOH, 1 hr",0.4494 area %
same,Change in Purity of Docetaxel,"EtOH, 1 hr",99.2959%
same,7-epi-docetaxel Amounts Produced,"EtOH, 5 hr",1.8948 area %
same,Change in Purity of Docetaxel,"EtOH, 5 hr",97.8546%
same,7-epi-docetaxel Amounts Produced,"EtOH, 10 hr",2.9451 area %
same,Change in Purity of Docetaxel,"EtOH, 10 hr",96.8045%
same,7-epi-docetaxel Amounts Produced,"EtOH, 24 hr",4.5544 area %
same,Change in Purity of Docetaxel,"EtOH, 24 hr",95.1952%
same,7-epi-docetaxel Amounts Produced,"MeOH, 0 hr",0 area %
same,Change in Purity of Docetaxel,"MeOH, 0 hr",99.7469%
same,7-epi-docetaxel Amounts Produced,"MeOH, 1 hr",4.0163 area %
same,Change in Purity of Docetaxel,"MeOH, 1 hr",95.7% and 95.7399%
same,7-epi-docetaxel Amounts Produced,"MeOH, 5 hr",17.2282 area %
same,Change in Purity of Docetaxel,"MeOH, 5 hr",81.8743%
same,7-epi-docetaxel Amounts Produced,"MeOH, 10 hr",28.4728 area %
same,Change in Purity of Docetaxel,"MeOH, 10 hr",69.3707%
same,7-epi-docetaxel Amounts Produced,"MeOH, 24 hr",41.5352 area %
same,Change in Purity of Docetaxel,"MeOH, 24 hr",50.7338%
